Assay results taken from US8809001B2, “High throughput assays for inhibitors and activators of PAQR receptors” (University of Florida Research Foundation, Inc., priority 2007, dated 2014).

What was measured:
[1] = test system: FET3; test: FET3-lacZ reporter in wild type yeast carrying empty expression plasmid; type: cell-based, Saccharomyces cerevisiae; conditions: no human PAQR
Description: Assays and growth conditions. Strains were maintained using standard protocol and grown in synthetic defined (SD) media with the appropriate amino acids to match the auxotrophies of the individual strains. Low Iron Medium (LIM) contains EDTA to limit iron-bioavailability and its composition has been previously described (Kupchak et al., 2007). […] In brief, overnights of cells grown in SD-glucose media were re-inoculated into iron-deficient LIM to induce the expression of FET3. 2% galactose was used as a carbon source to induce full expression of PAQR genes driven by the GAL1 promoter, while 0.05% galactose/1.95% raffinose was used for reduced PAQR expression. All ligands were added to the growth medium upon re-inoculation into LIM. For experiments in which steroids were added as ligands, steroids were added from ethanol stocks and “untreated” controls are actually treated with an equal volume of ethanol to control for vehicle effects. Cells were allowed to grow to mid-log phase at which time the activity of the FET3 gene was monitored using a FET3-lacZ promoter-reporter construct. lacZ activities are presented as a percentage of activity seen in untreated cells expressing the appropriate empty expression vector control. For individual experiments, each data point has been done in triplicate and the error bars represent +/−1 standard deviation. All experiments were performed at least three times and a representative experiment is shown. EC50 values were obtained using the web-based BioDataFit software using sigmoidal curve-fitting. (web site changbioscience.com/stat/ec50.html)

[2] = test system: AdipoR2; test: FET3-lacZ (pFET3-397) reporter repression in yeast expressing AdipoR2; type: cell-based, human; conditions: concentrations as high as 10 μM
Description: (§1) IZH1-4 were cloned into pRS316-GAL1 via gap repair as previously described (Lyons et al., 2004). The triple hemaglutinin epitope (3×HA) tagged construct of the IZH2 gene was generated by replacing the ZRC1 promoter and open reading frame in the YCpZRC1-HA plasmid (MacDiarmid et al., 2002) with those of IZH2. This was accomplished by gap repair of Age I-digested YCpZRC1-HA to generate pIZH2-3×HA. This construct has the IZH2 gene driven by its native promoter and retains the ZRC1 terminator sequence. The native IZH2 promoter was then exchanged with the GAL1 promoter using gap repair of pIZH2-3×HA plasmids cut with EcoN I. AdipoR1 and AdipoR2 were amplified from cDNAs obtained from OpenBiosystems (Accession #: BC010743 and BC051858, respectively). PCR products were cloned into NcoI/BamHI digested pYES260 vector (Melcher, 2000) by gap repair allowing for GAL1-driven expression. Plasmids containing GAL1-driven the TAP (Tandem Affinity Purification) tagged NRG1 and NRG2 constructs were purchased from OpenBiosystems.
Most experiments were performed in a defined EDTA-containing medium known as low iron medium (LIM) (Eide et al., 1992). Iron-deficiency and repletion were generated by adding either 1 μM or 1 mM of FeCl3, respectively, to LIM. 2% galactose was used to fully induce GAL1-driven gene overexpression. Total sugar concentration was maintained at 2% by the addition of raffinose in those experiments in which the % galactose was modulated to decrease expression levels. Cells were allowed to grow to mid-log phase in LIM and β-galactosidase assays on permeabilized yeast were performed as previously described (Lyons et al., 2000). […]
(§2) Assays and growth conditions. […] Cells were allowed to grow to mid-log phase at which time the activity of the FET3 gene was monitored using a FET3-lacZ promoter-reporter construct. lacZ activities are presented as a percentage of activity seen in untreated cells expressing the appropriate empty expression vector control. […]

[3] = molecular target: T1, AdipoR1 (Homo sapiens, UniProt Q96A54); test: FET3-lacZ (pFET3-397) reporter repression in yeast expressing AdipoR1; type: cell-based; conditions: concentrations as high as 10 μM
T1 construct: expressed in transfected cells; host or cells: Saccharomyces cerevisiae BY4742, GAL1-driven pYES260 plasmid
T1 sequence (Q96A54 1-375): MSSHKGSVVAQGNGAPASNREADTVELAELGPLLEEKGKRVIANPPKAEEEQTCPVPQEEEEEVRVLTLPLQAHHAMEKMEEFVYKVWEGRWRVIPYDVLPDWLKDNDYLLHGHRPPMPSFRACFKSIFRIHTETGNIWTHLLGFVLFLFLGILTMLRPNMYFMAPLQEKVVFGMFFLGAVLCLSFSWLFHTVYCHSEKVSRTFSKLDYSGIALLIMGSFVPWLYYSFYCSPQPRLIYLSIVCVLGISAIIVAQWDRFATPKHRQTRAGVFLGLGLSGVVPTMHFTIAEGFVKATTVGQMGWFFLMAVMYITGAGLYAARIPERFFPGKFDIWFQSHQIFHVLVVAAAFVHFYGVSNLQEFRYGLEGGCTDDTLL
Description: as §1, with “OpenBiosystems. […]” for “OpenBiosystems.”
as §2

CC(=O)[C@H]1CC[C@H]2[C@@H]3CCC4=CC(=O)CC[C@]4(C)[C@H]3CC[C@]12C [Progesterone, progesterone]
effect of ligand on FET3 in cells carrying empty expression plasmid [1]: did not respond | response of AdipoR2 to progesterone [2]: do not respond | response of AdipoR1 to progesterone [3]: do not respond
